Measured values published in patent publication US10508104B2, “6-hydroxy-5-(phenyl/heteroarylsulfonyl)pyrimidin-4(1H)-one as APJ agonists” (Bristol-Myers Squibb Company, priority 2016, dated 2019).

These molecules were tested against human APJ receptor (Homo sapiens (Human), UniProt P35414) (assay: Intracellular cAMP accumulation assay (APJ hcAMP, HTRF)). Conditions: HEK293 cells stably expressing human APJ receptor; inhibition of forskolin-mediated cAMP production; read-out: Human APJ cAMP EC50 Potency range.
Assay type: cell-based
Summary of the method: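 HEK293 cells stably expressing human APJ, 5,000 per well, incubated 30 min at rt with compound, […] and 2 μM forskolin. cAMP measured by HTRF against a cAMP standard curve as inhibition of forskolin-driven production. EC50 from variable-slope sigmoidal fit.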

human APJ receptor, sequence (P35414 whole entry): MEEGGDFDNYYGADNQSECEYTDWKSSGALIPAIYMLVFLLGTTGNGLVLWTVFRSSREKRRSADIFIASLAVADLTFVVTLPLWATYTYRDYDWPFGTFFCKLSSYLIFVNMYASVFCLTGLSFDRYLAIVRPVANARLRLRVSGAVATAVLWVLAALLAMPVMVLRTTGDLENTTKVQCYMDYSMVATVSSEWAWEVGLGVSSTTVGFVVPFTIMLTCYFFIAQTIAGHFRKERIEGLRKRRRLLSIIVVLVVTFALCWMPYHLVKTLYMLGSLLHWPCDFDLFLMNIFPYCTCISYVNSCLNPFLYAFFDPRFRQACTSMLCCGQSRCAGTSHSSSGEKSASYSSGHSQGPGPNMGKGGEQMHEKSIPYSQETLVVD

Row | SMILES | EC50 [nM]
1 | CC[C@@H](c1cccc(C#N)c1)n1c(CC2CC2)nc(=O)c(S(=O)(=O)c2ccc(-c3cccnc3C(N)=O)cc2)c1O [Example 486, 3-[4-({1-[(1S)-1-(3-cyanophenyl)propyl]-2-(cyclopropylmethyl)-6-hydroxy-4-oxo-1,4-dihydropyrimidin-5-yl}sulfonyl)phenyl] pyridine-2-carboxamide] | 0.01 to 10
2 | CCCCc1nc(=O)c(S(=O)(=O)c2ccc(-c3ccncc3C)cc2)c(O)n1[C@H](c1cccc(C#N)c1)C1CC1 [Example 487, 3-[(S)-{2-butyl-6-hydroxy-5-[4-(3-methylpyridin-4-yl)benzenesulfonyl]-4-oxo-1,4-dihydropyrimidin-1-yl}(cyclopropyl)methyl] benzonitrile] | 0.01 to 10
3 | CC[C@@H](c1cc(F)cc(C#N)c1)n1c(CC2CC2)nc(=O)c(S(=O)(=O)c2ccc(-c3ccnc(F)c3C)cc2)c1O [Example 488, 3-[(1S)-1-[2-(cyclopropylmethyl)-5-[4-(2-fluoro-3-methylpyridin-4-yl)benzenesulfonyl]-6-hydroxy-4-oxo-1,4-dihydropyrimidin-1-yl]propyl]-5-fluorobenzonitrile] | 0.01 to 10
4 | CCCCc1nc(=O)c(S(=O)(=O)c2ccc(-c3ccccc3C(=O)N3CCOCC3)cc2)c(O)n1[C@@H](CC)c1cccc(C#N)c1 [Example 489, 3-[(1S)-1-(2-butyl-6-hydroxy-5-{[2′-(morpholine-4-carbonyl)-[1,1′-biphenyl]-4-yl)sulfonyl}-4-oxo-1,4-dihydropyrimidin-1-yl)propyl]benzonitrile] | 0.01 to 10

Next, values leading:

Row | EC50 [nM] | SMILES
5 | 0.01 to 10 | CCCCc1nc(=O)c(S(=O)(=O)c2ccc(-c3ccccc3C)cn2)c(O)n1[C@@H](CC)c1cccc(C#N)c1 [Example 482, 3-[(1S)-1-(2-butyl-6-hydroxy-5-{[5-(2-methy!phenyl)pyridin-2-yl]sulfonyl}-4-oxo-1,4-dihydropyrimidin-1-yl)propyl]benzonitrile]
6 | 0.01 to 10 | C/C=C(/c1cccc(C#N)c1)n1c(CCCC)nc(=O)c(S(=O)(=O)c2ccc(-c3ccnc(F)c3C)cc2)c1O [Example 483, 3-[(1Z)-1-{2-butyl-5-[4-(2-fluoro-3-methylpyridin-4-yl)benzenesulfonyl]-6-hydroxy-4-oxo-1,4-dihydropyrimidin-1-yl}prop-1-en-1-yl]benzonitrile]
7 | 0.01 to 10 | CCCCc1nc(=O)c(S(=O)(=O)c2ccc(-c3cccnc3C)cc2)c(O)n1[C@H](c1cccc(C#N)c1)C1CC1 [Example 484, 3-[(S)-{2-butyl-6-hydroxy-5-[4-(2-methyipyridin-3-yl)benzenesulfonyl]-4-oxo-1,4-dihydropyrimidin-1-yl}(cyclopropyl)methyl] benzonitrile]
8 | 0.01 to 10 | CCCCc1nc(=O)c(S(=O)(=O)c2ccc(-c3cccn(C)c3=O)cn2)c(O)n1[C@@H](CC)c1cccc(C#N)c1 [Example 485, 3-[(1S)-1-[2-butyl-6-hydroxy-5-({1′-methyl-2′-oxo-1′,2′-dihydro-[3,3′-bipyridine]-6-yl}sulfonyl)-4-oxo-1,4-dihydropyrimidin-1-yl]propyl]benzonitrile]
9 | 0.01 to 10 | Cn1cccc(-c2ccc(S(=O)(=O)c3c(O)n([C@H](c4cccc(C#N)c4)C4CC4)c(CC4CC4)nc3=O)cc2)c1=O [Example 490, 3-[(S)-cyclopropyl[2-(cyclopropylmethyl)-6-hydroxy-5-[4-(1-methyl-2-oxo-1,2-dihydropyridin-3-yl)benzenesulfonyl]-4-oxo-1,4-dihydropyrimidin-1-yl]methyl]benzonitrile]
10 | 0.01 to 10 | CCCCc1nc(=O)c(S(=O)(=O)c2ccc(-c3ccccc3C)cc2)c(O)n1[C@@H](CC)c1cccc(C#N)c1 [Example 491, 3-[(1S)-1-[2-butyl-6-hydroxy-5-({2′-methyl-[1,1′-biphenyl]-4-yl}sulfonyl)-4-oxo-1,4-dihydropyrimidin-1-yl]propyl]benzonitrile]
